In US20140248342A1, “Fe(III) 2,4-Dioxo-1-Carbonyl Complexes For Treatment And Prophylaxis Of Iron Deficiency Symptoms And Iron Deficiency Anaemias” (Vifor (International) AG, priority 2011, published 2014):
Where two headings read alike, the source gives them in different places.

Tests used:
Sprague-Dawley rats [1] = conditions: cited from earlier work; for toxicity in animal studies (in words): literature report London, Smith 1983
[2] = test system: Male NMRI (SPF) mice fed a low-iron diet; assay: Iron utilization in mouse model (low-iron diet, hemoglobin and body weight increase); format: in vivo; conditions: stomach tube, 2 mg iron/kg body weight/day, days 1-5 and 8-12; utilization on day 15 calculated from hemoglobin and body weight increase
Method: The excellent Fe utilizations that can be accomplished through the Fe complexes according to the invention were measured by means of the following mouse model.
Male NMRI (SPF) mice (approximately 3 weeks old) were fed a low-iron diet (approx. 5 ppm iron) for approximately 3 weeks. The iron complexes were then administered to them by means of a stomach tube (2 mg iron/kg body weight/day) 2 times a day for 5 days, with an interruption of 2 days (days 1-5 and 8-12). Utilization on day 15 was calculated from the hemoglobin increase and the body weight increase in accordance with the formula
0.07=Factor for 70 ml blood per kg body weight (BW)
Hb1=Hemoglobin level (g/l) on day 1 Hb2(3)=Hemoglobin level (g/l) on day 8 (or 15) BW4=body weight (g) on day 1 BW9(14)=body weight (g) on day 8 (or 15) Hb1 Control=average hemoglobin level (g/l) on day 1 in the control group, Hb2(3) Control=average hemoglobin level (g/l) on day 8 (or 15) in the control group, BW4 Control=average body weight (g) on day 1 in the control group, BW9(14) Control=average body weight (g) on day 8 (or 15) in the control group, Fe Dos.=entire administered iron (mg Fe) over 5 or 10 days,
Δ Utilization=Fe tot. utilized (examined group)−Fe ut. Control group, utilized from food, (mg Fe)

Sprague-Dawley rats [3] = assay: Toxicity compared with Fe(acac)3: oral administration, single dose, observation until 24 h; format: in vivo; conditions: for Number of dead animals after 24 h / animals still alive after 24 hours: 6 Sprague-Dawley rats; for toxicological findings after 24 hours: Sprague-Dawley rats
Description: The toxicity of the novel iron complex compounds was compared with that of tris(acetylacetonate)iron.

| Molecule | Utilization n 15 d (abs. %) [2] [abs. %] | further results |
| --- | --- | --- |
| CC(=O)/C=C(/C)[O-].CC(=O)/C=C(/C)[O-].CC(=O)/C=C(/C)[O-].[Fe+3] [Fe(Acac)3, tris(acetylacetonate)iron] | – | toxicity in animal studies (in words) (Sprague-Dawley rats [1]): highly toxic; toxicity in animal studies (in words) (Sprague-Dawley rats [1]; listed as iron(III)-(acetylacetonate)3): very toxic; Number of dead animals after 24 h (Sprague-Dawley rats [1]; single oral dose 1000 mg/kg iron complex (160 mg/kg iron), 10 animals, Lit. 1): 6 |
| Tris-(1-(morpholin-4-yl)pentane-1,2,4-trione)-iron(III)-complex [Example 12] | 75 | – |
| Tris-(2,4-dioxopentanamide)-iron(III)-complex [Example 3] | 82 | Number of dead animals after 24 h (Sprague-Dawley rats [3]; single oral dose 1400 mg/kg iron complex (170 mg/kg iron)): 0; animals still alive after 24 hours (Sprague-Dawley rats [3]; single oral dose 1400 mg/kg): 6; toxicological findings after 24 hours (Sprague-Dawley rats [3]; single oral dose 1400 mg/kg): absolutely no toxicological findings |
| Tris-(5-methyl-1-(morpholin-4-yl)hexane-1,2,4-trione)-iron(III)-complex [Example 11] | 51 | – |
| Tris-(N,N,5,5-tetramethyl-2,4-dioxohexanamide)-iron(III)-complex [Example 8] | 72 | – |
| Tris-(N,N,5,-trimethyl-2,4-dioxohexanamid)-iron(III)-complex [Example 9] | 89 | – |
| Tris-(ethyl 2,4-dioxopentanoate)-iron(III)-complex [Example 1] | 106 | Number of dead animals after 24 h (Sprague-Dawley rats [3]; single oral dose 1600 mg/kg iron complex (170 mg/kg iron)): 0; animals still alive after 24 hours (Sprague-Dawley rats [3]; single oral dose 1600 mg/kg): 6; toxicological findings after 24 hours (Sprague-Dawley rats [3]; single oral dose 1600 mg/kg): absolutely no toxicological findings |
| Tris-(ethyl oxo(2-oxocyclohexyl)acetate)-iron(III)-complex [Example 6] | 65 | – |
| Tris-(ethyl oxo(2-oxocyclopentyl)acetate)-iron(III)-complex [Example 5] | 59 | – |
| Tris-(methyl 2,4-dioxopentanoate)-iron(III)-complex [Example 2] | 94 | – |
